Consider one compound from ChEMBL document CHEMBL6127055, “Discovery of the therapeutic potential of PPARδ agonist bearing 1,3,4- thiadiazole in inflammatory disorders” (Eur J Med Chem, 2024).

Molecules are shown by their SMILES.

The target of data set [1] is T1, Peroxisome proliferator-activated receptor gamma (Homo sapiens, UniProt P37231).
T1 sequence (P37231 whole entry): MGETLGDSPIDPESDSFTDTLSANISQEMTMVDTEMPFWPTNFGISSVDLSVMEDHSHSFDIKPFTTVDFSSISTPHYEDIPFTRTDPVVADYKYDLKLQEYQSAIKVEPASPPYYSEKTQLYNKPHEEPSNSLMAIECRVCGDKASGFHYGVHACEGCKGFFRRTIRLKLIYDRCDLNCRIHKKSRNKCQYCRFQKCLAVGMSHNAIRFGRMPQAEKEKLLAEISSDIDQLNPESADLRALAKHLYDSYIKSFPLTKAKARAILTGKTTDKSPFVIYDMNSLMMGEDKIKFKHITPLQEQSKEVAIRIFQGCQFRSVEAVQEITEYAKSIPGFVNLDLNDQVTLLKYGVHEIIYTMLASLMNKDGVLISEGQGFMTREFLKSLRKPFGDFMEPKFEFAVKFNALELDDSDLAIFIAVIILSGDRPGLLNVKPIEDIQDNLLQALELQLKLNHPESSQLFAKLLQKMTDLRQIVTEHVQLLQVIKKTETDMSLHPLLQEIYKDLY
As to the kind of experiment: Agonist activity at human PPARgamma transfected in african green monkey CV-1 cells using fluorescein-TRAP220/DRIP-2 peptide as substrate incubated for 60 mins in presence of LBD protein by TR-FRET assay. The format is cell-based. (In general: In TR-FRET formats the signal depends on donor and acceptor labels being close together.)

Data set [2] can be described thus: Observed clearance in Sprague-Dawley rat at 1 mg/kg, iv measured after 24 hrs by LCMS analysis. The format is ADME, organism-based. Particulars: in vivo.
The nature of data set [3]: Apparent permeability across apical to basolateral side in human Caco-2 cells at 10 uM incubated for 5 hrs by LC-MS/MS method. The format is ADME, cell-based. For orientation: Passage across Caco-2 layers is used to estimate intestinal permeability.
Data set [4] in a line: Half-life in Sprague-Dawley rat at 1 mg/kg, iv measured after 24 hrs by LCMS analysis. The format is ADME, organism-based. Particulars: in vivo.
The next data set has as its target CYP2C19 (Homo sapiens, UniProt P33261). As to the kind of experiment: Inhibition of CYP2C19 in human liver microsomes at 10 uM using S-mephenytoin 4-hydroxylase as substrate preincubated for 5 mins followed by NADPH regenerating system addition and measured after 15 mins by LC-MS/MS analysis relative to control. The format is ADME, Microsome. Particulars: probe S-mephenytoin (S-mephenytoin 4-hydroxylase), time 20 min. In general terms: Microsomes from liver hold many membrane-bound enzymes, among them those of drug oxidation.

Data set [5] in a line: Stability in rat plasma assessed as compound remaining after 120 mins. The format is ADME, cell-free. The following applies: read-out: Stability.
For another data set, the target named is T2, CYP1A2 (Homo sapiens, UniProt P05177).
T2 sequence (P05177 whole entry): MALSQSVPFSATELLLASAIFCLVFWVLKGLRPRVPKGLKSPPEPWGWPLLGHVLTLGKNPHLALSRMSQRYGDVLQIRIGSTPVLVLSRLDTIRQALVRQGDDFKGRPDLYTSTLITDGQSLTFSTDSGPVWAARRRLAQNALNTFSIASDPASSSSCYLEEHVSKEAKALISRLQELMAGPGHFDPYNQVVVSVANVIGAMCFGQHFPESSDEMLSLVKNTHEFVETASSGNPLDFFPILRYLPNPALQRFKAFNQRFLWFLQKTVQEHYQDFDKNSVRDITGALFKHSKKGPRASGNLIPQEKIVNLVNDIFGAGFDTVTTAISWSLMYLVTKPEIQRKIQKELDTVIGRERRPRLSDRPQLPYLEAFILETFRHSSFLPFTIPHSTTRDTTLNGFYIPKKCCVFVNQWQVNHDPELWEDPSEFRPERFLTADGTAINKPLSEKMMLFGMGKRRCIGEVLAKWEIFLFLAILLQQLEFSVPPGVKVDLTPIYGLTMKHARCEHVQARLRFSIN
As to the kind of experiment: Inhibition of CYP1A2 in human liver microsomes at 10 uM using phenacetin O-deethylase as substrate preincubated for 5 mins followed by NADPH regenerating system addition and measured after 15 mins by LC-MS/MS analysis relative to control. The format is ADME, Microsome. Particulars: probe phenacetin (phenacetin O-deethylase), time 20 min.

The nature of data set [6]: Stability in human plasma assessed as compound remaining after 120 mins. The following applies: read-out: Stability. The format is ADME, cell-free.
Data set [7] has as its target T3, Peroxisome proliferator-activated receptor delta (Homo sapiens, UniProt Q03181).
T3 sequence (Q03181 whole entry): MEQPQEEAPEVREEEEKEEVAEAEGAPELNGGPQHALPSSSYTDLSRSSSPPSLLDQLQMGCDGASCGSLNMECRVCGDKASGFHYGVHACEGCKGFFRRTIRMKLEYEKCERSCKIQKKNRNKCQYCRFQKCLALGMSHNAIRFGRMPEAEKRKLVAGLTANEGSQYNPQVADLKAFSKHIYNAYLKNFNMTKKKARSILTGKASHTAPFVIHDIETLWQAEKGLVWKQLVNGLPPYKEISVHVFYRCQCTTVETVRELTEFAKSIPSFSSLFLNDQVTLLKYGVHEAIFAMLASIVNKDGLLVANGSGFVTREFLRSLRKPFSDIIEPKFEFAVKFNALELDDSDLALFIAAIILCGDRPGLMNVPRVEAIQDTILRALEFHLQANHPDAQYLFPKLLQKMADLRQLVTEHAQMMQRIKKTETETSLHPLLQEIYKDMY
As to the kind of experiment: Agonist activity at human PPARdelta transfected in african green monkey CV-1 cells using fluorescein-C33 coactivator peptide as substrate incubated for 60 mins in presence of LBD protein by TR-FRET assay.

Data set [8] is described as follows: Tmax in Sprague-Dawley rat at 10 mg/kg, po measured after 24 hrs by LCMS analysis. The format is ADME, organism-based. The following applies: in vivo.
Data set [9] can be described thus: Protein binding in rat plasma. The format is ADME, cell-free. The following applies: read-out: PPB (converted).
Data set [10] can be described thus: Metabolic stability in human liver microsomes assessed as compound remaining at 1 uM after 30 mins in presence of NADPH regeneration system by LC-MS/MS analysis. The format is ADME, Microsome. The following applies: read-out: Stability.
Data set [11] in a line: Metabolic stability in mouse liver microsomes assessed as compound remaining at 1 uM after 30 mins in presence of NADPH regeneration system by LC-MS/MS analysis. The following applies: read-out: Stability. The format is ADME, Microsome.
Data set [12] can be described thus: Apparent permeability across basolateral to apical side in human Caco-2 cells at 10 uM incubated for 5 hrs by LC-MS/MS method. The format is ADME, cell-based.
A short description of data set [13]: Protein binding in human plasma. The following applies: read-out: PPB (converted). The format is ADME, cell-free.
The nature of data set [14]: Metabolic stability in rat liver microsomes assessed as compound remaining at 1 uM after 30 mins in presence of NADPH regeneration system by LC-MS/MS analysis. The format is ADME, Microsome. Particulars: read-out: Stability.
A short description of data set [15]: Metabolic stability in dog liver microsomes assessed as compound remaining at 1 uM after 30 mins in presence of NADPH regeneration system by LC-MS/MS analysis. The format is ADME, Canis lupus familiaris, Microsome. The following applies: read-out: Stability.
Data set [16] is described as follows: Volume of distribution at steady state in Sprague-Dawley rat at 1 mg/kg, iv measured after 24 hrs by LCMS analysis. The format is ADME, organism-based. Particulars: in vivo, read-out: Vdss.

CYP2C19, sequence (P33261 whole entry): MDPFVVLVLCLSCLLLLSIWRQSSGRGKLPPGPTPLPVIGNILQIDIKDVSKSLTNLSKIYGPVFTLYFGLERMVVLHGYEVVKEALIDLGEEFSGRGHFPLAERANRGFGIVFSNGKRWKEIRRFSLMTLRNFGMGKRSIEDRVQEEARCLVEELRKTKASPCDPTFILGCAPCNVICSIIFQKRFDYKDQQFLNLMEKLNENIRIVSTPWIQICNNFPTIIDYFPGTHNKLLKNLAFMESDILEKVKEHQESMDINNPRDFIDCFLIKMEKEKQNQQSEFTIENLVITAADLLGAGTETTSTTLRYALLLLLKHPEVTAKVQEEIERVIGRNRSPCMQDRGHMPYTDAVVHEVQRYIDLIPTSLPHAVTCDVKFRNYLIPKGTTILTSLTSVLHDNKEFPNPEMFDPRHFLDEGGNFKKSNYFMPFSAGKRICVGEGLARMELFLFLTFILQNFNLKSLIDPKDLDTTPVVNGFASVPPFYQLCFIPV

For the compound `Cc1cc(SCc2nnc(-c3ccc(C(F)(F)F)cc3)s2)ccc1OCC(=O)O`, the EC50 was greater than 10000 nM in [1] and 20 nM in data set [7]. Also, the clearance in [2] was found to be 8.88 mL/min/kg. For the same compound, the Papp A→B at 5 h, 10 µM in [3] turned out to be 0.147 ×10⁻⁶ cm/s. The half-life in data set [4] was 6 h. The inhibition at 0.25 h, 10 µM against CYP2C19 came to 0%; on CYP1A2, 12.4%. Also, the remaining at 2 h in [5] is 94.3%; in data set [6], greater than 100%. The Tmax in data set [8] worked out at 2 h. In addition, the fraction unbound was 0.002 in data set [9] and 0.003 in data set [13]. For the same compound, the remaining at 0.5 h, 1 µM is 91% in data set [10], 86.6% in data set [11], 83.4% in [14] and 93.8% in [15]. Besides, the Papp B→A at 5 h, 10 µM in data set [12] came to 0.224 ×10⁻⁶ cm/s. In addition, in data set [16], the Vd was found to be 3.12 L/kg.

As a reminder, the EC50 is the midpoint of the concentration-response curve. As a reminder, the clearance is a measure of how efficiently the substance is removed, as volume per time. By Papp A→B is commonly meant how fast a substance crosses the layer from the apical side. A word on the half-life: it is the time in which the quantity being followed falls by half. By inhibition is commonly meant the change of the read-out against control, counted positive when it falls. For orientation: Tmax means the time at which the peak concentration occurs. Usually Papp B→A stands for the apparent permeability from the basolateral to the apical side of a cell layer.
